From US7365174B2, “Azalide and azalactam derivatives and method for producing the same” (Meiji Seika Kaisha, Ltd., priority 2003, dated 2008)
Values after ≈ are worked out from the molar mass of the structure shown.

How the values were obtained:
Assay in all cases: Antibacterial activity test (agar dilution MIC)
Assay type in all cases: cell-based
[1] = test system: Streptococcus pneumoniae IP692; settings: test bacterium C = Streptococcus pneumoniae IP692; blood agar medium, 37° C., about 20 hours; read-out: Minimum inhibitory concentration (MIC)
Experimental: (§1) In vitro antibacterial activities of the compounds of Examples 13, 28, 35, 43, 53 to 55, 64, 70, 84, 90, 94, 95, 108, 128, and 129 were measured as follows by referring to the standard method of the Japanese Society of Chemotherapy (Chemotherapy, Vol. 29, pp. 76-79, 1981). The antibacterial activity of midecamycin (MDM) was similarly measured for comparison.
(§2) Using each solution of the test substance prepared in methanol at a concentration of […], 2-fold serial dilutions were prepared by using methanol. Each of the prepared solutions of the test substances was put into a petri dish in a volume of 200 μl, added with 10 ml of agar medium for sensitivity measurement added with 5% horse sterile defibrinated blood, 15 μg/ml of β-nicotinamide-adenine dinucleotide, and 2.5 μg/ml of Hemin, and mixed for dilution to prepare an agar plate containing a test substance. A predetermined volume of a liquid medium for sensitivity measurement, prepared so as to contain a given number of test bactera, was inoculated on the agar plate containing a test substance by using a micro planter (Sakuma Seisakusho), and after the inoculation, the bacteria were cultured at 37° C. for about 20 hours. After the culture, presence or absence of growth of the test bacteria on the plate was observed by visual inspection, and the minimum concentration at which growth was not observed was determined as the minimum inhibitory concentration (MIC) of the test sustance.

[2] = test system: Staphylococcus aureus 209P JC-1; settings: test bacterium A = Staphylococcus aureus 209P JC-1; blood agar medium, 37° C., about 20 hours; read-out: Minimum inhibitory concentration (MIC)
Experimental: as §1, §2

[3] = test system: Streptococcus pneumoniae DP1 TypeI; settings: DP1TYPEI; test bacterium B = Streptococcus pneumoniae DP1 TypeI; blood agar medium, 37° C., about 20 hours; read-out: Minimum inhibitory concentration (MIC)
Experimental: as §1, §2

[4] = test system: Streptococcus pyogenes Cook; settings: test bacterium E = Streptococcus pyogenes Cook; blood agar medium, 37° C., about 20 hours; read-out: Minimum inhibitory concentration (MIC)
Experimental: as §1, §2

[5] = test system: Moraxella catarrhalis W-0506; settings: W0506; test bacterium F = Moraxella catarrhalis W-0506; blood agar medium, 37° C., about 20 hours; read-out: Minimum inhibitory concentration (MIC)
Experimental: as §1, §2

[6] = test system: Streptococcus pneumoniae TH-662; settings: TH662; test bacterium D = Streptococcus pneumoniae TH-662; blood agar medium, 37° C., about 20 hours; read-out: Minimum inhibitory concentration (MIC)
Experimental: as §1, §2

[7] = test system: Haemophilus influenzae 9334; settings: test bacterium G = Haemophilus influenzae 9334; blood agar medium, 37° C., about 20 hours; read-out: Minimum inhibitory concentration (MIC)
Experimental: as §1, §2

Structure (SMILES)	MIC [1] [µg/mL]	MIC [2] [µg/mL]	MIC [3] [µg/mL]	MIC [4] [µg/mL]	MIC [5] [µg/mL]	MIC [6] [µg/mL]	MIC [7] [µg/mL]
CCC(=O)OC1C(C)O[C@@H](O[C@@H]2C(C)O[C@@H](O[C@H]3[C@@H](CC=O)C[C@@H](C)[C@@H](O)CN(CCCCc4ccccc4)CCCNC(=O)C[C@@H](OC(=O)CC)[C@@H]3OC)C(O)C2N(C)C)CC1(C)OC(C)=O (stereo partly drawn) [Example 13]	0.25 (≈ 0.259 µM)	0.25 (≈ 0.259 µM)	0.13 (≈ 0.135 µM)	0.25 (≈ 0.259 µM)	0.25 (≈ 0.259 µM)	16 (≈ 16.6 µM)	0.5 (≈ 0.519 µM)
CCC(=O)OC1C(C)O[C@@H](O[C@@H]2C(C)O[C@@H](O[C@H]3[C@@H](CC=O)C[C@@H](C)[C@@H](O)CN(C)CCC(/C=C/Cc4ccnc5ccccc45)NC(=O)C[C@@H](OC(=O)CC)[C@@H]3OC)C(O)C2N(C)C)CC1(C)O (stereo partly drawn) [Example 28]	0.13 (≈ 0.134 µM)	0.5 (≈ 0.515 µM)	0.03 (≈ 0.0309 µM)	0.25 (≈ 0.257 µM)	2 (≈ 2.06 µM)	8 (≈ 8.24 µM)	1 (≈ 1.03 µM)
CCC(=O)OC1C(C)O[C@@H](O[C@@H]2C(C)O[C@@H](O[C@H]3[C@@H](CC=O)C[C@@H](C)[C@@H](O)CN(C)CCC(CCCc4cnc5ccccc5c4)NC(=O)C[C@@H](OC(=O)CC)[C@@H]3OC)C(O)C2N(C)C)CC1(C)O (stereo partly drawn) [Example 35]	0.06 (≈ 0.0617 µM)	1 (≈ 1.03 µM)	0.03 (≈ 0.0308 µM)	0.25 (≈ 0.257 µM)	4 (≈ 4.11 µM)	8 (≈ 8.22 µM)	2 (≈ 2.06 µM)
CCC(=O)O[C@@H]1CC(=O)O[C@H](C)CCCN(CCCCc2ccccc2)C[C@H](O)[C@H](C)C[C@H](CC=O)[C@H](O[C@@H]2OC(C)[C@@H](O[C@H]3CC(C)(OC(C)=O)[C@@H](OC(=O)CC)C(C)O3)C(N(C)C)C2O)[C@H]1OC (stereo partly drawn) [Example 43]	0.06 (≈ 0.0604 µM)	0.25 (≈ 0.252 µM)	0.06 (≈ 0.0604 µM)	0.13 (≈ 0.131 µM)	0.5 (≈ 0.503 µM)	1 (≈ 1.01 µM)	0.5 (≈ 0.503 µM)
CCC(=O)O[C@@H]1CC(=O)NCCCCN(CCCCc2ccccc2)C[C@H](O)[C@H](C)C[C@H](CC=O)[C@H](O[C@@H]2OC(C)[C@@H](O[C@H]3CC(C)(OC(C)=O)[C@@H](OC(=O)CC)C(C)O3)C(N(C)C)C2O)[C@H]1OC (stereo partly drawn) [Example 64]	0.25 (≈ 0.256 µM)	0.25 (≈ 0.256 µM)	0.13 (≈ 0.133 µM)	0.06 (≈ 0.0613 µM)	0.25 (≈ 0.256 µM)	8 (≈ 8.18 µM)	1 (≈ 1.02 µM)

The next compounds have a lower MIC [1] than those just listed; values first:

MIC [1] [µg/mL]	MIC [2] [µg/mL]	MIC [3] [µg/mL]	MIC [4] [µg/mL]	MIC [5] [µg/mL]	MIC [6] [µg/mL]	MIC [7] [µg/mL]	Structure (SMILES)
0.03 (≈ 0.0304 µM)	0.13 (≈ 0.132 µM)	0.015 (≈ 0.0152 µM)	0.03 (≈ 0.0304 µM)	1 (≈ 1.01 µM)	8 (≈ 8.11 µM)		CCC(=O)O[C@@H]1CC(=O)OCCC(/C=C/Cc2ccnc3ccccc23)CN(C)C[C@H](O)[C@H](C)C[C@H](CC=O)[C@H](O[C@@H]2OC(C)[C@@H](O[C@H]3CC(C)(O)[C@@H](OC(=O)CC)C(C)O3)C(N(C)C)C2O)[C@H]1OC (single isomer, unassigned) [Example 54]
0.03 (≈ 0.0304 µM)	0.5 (≈ 0.507 µM)	0.015 (≈ 0.0152 µM)	0.06 (≈ 0.0608 µM)	1 (≈ 1.01 µM)	8 (≈ 8.11 µM)	2 (≈ 2.03 µM)	CCC(=O)O[C@@H]1CC(=O)O[C@@H](C/C=C/c2cnc3ccccc3c2)CCCN(C)C[C@H](O)[C@H](C)C[C@H](CC=O)[C@H](O[C@@H]2OC(C)[C@@H](O[C@H]3CC(C)(O)[C@@H](OC(=O)CC)C(C)O3)C(N(C)C)C2O)[C@H]1OC (stereo partly drawn) [Example 53]
0.03 (≈ 0.0382 µM)	0.5 (≈ 0.636 µM)	0.03 (≈ 0.0382 µM)	0.06 (≈ 0.0763 µM)	0.25 (≈ 0.318 µM)	> 128		CCC(=O)O[C@@H]1CC(=O)OCCC(/C=C/Cc2ccnc3ccccc23)CN(C)C[C@H](O)[C@H](C)C[C@H](CC=O)[C@H](O[C@@H]2OC(C)[C@@H](O)C(N(C)C)C2O)[C@H]1OC (stereo partly drawn) [Example 55]
